From PMC3750051, “A New Class of Rhomboid Protease Inhibitors Discovered by Activity-Based Fluorescence Polarization” (PLoS ONE, 2013)

Legend:
E. coli rhomboid GlpG [1] = target: T1, E. coli rhomboid GlpG (Escherichia coli, UniProt P09391); experiment: biochemical
GlpG [2] = target: T2, GlpG (Escherichia coli, UniProt P09391); experiment: Gel-based competitive activity-based probe profiling (competitive ABPP); format: biochemical, E. coli; details: for blocking of EK2 labeling of GlpG (gel-based competitive ABPP): 100 µM compound, 45 nM GlpG, 1 µM probe EK2
Description: For the competitive activity-based probe profiling (competitive ABPP) experiment 45 nM of rhomboid in 20 µl of 50 mM HEPES (pH 7.4) containing 10% glycerol and 0.0125% DDM were incubated for 30 min at 37°C shaking with 100 µM of the compound or an equal volume of DMSO. Then either probe EK2 or FP-R was added to a final concentration of 1 µM and incubated for further 30 min at 37°C shaking in the dark. The labeling reaction was stopped with 4× SDS-sample buffer and 10 µl of the reaction (15 ng protein per lane) was applied to a 15% SDS-polyacrylamide gel and run for 1 h 10 min at 200V. The gel was visualized on a fluorescence scanner (Typhoon, Trio +).

GlpG [3] = target: T2, GlpG; experiment: Substrate cleavage of fluorescently labeled TatA (Providencia stuartii) by GlpG; format: biochemical, E. coli; details: 100 µM compound, 500 nM GlpG, 83 nM TAMRA-labeled TatA, overnight at 37°C
Description: The TatA protein from Providencia stuartii was used for generation of a fluorescence substrate. The substrate was constructed to include a His6-tag for purification as well as a LPRTG-motif for sortase-mediated protein labeling. It was expressed and purified as described above. For the labeling reaction, 33 µM of the unlabeled substrate, 50 µM sortase A from S. aureus and 500 µM of the label NH2-Ala-Ala-Ahx-Lys(TAMRA) were added together in labeling buffer (50 mM Tris, pH 7.5 containing 150 mM NaCl, 10 mM CaCl2 and 0.05% (w/v) DDM) and allowed to react o/n at 37°C in the dark. […] This allowed removal of sortase and unlabeled substrate by incubation of the labeling reaction with Ni-NTA agarose beads. The supernatant was applied to a ZEBA-spin desalting column (VWR; MW-cut-off 7 kDa) to remove excess label. 40 µL of a 500 nM rhomboid solution (in 50 mM HEPES (pH 7.4) containing 10% (v/v) glycerol and 0.0125% (w/v) DDM) were incubated for 30 min at 37°C shaking with 100 µM of the compounds or DMSO. Then fluorescently labeled rhomboid substrate TatA (Providencia stuartii) was added to a final concentration of 83 nM. The cleavage reaction was allowed to take place o/n at 37°C shaking in the dark and stopped by the addition of 4× SDS-sample buffer. 10 µl of each reaction (10 ng protein per lane) was applied to a 15% SDS-polyacrylamide gel and run for 1 h 10 min at 200V. The gel was visualized on a fluorescence scanner (Typhoon, Trio +).

E. coli rhomboid GlpG [4] = target: T1, E. coli rhomboid GlpG; format: biochemical; details: 100 µM compound; for FluoPol signal, % of wild-type signal: 30 min preincubation, 75 nM FP-R, polarization at 4 h, GlpG WT = 100%, duplicate screens
bovine chymotrypsin [5] = target: T3, bovine chymotrypsin (Bos taurus, UniProt P00766); experiment: IC50 against chymotrypsin; format: biochemical; details: for IC50: bovine chymotrypsin, read-out: apparent IC50 against chymotrypsin; for potency against GlpG compared with trypsin and chymotrypsin: comparison of apparent IC50 values
bovine trypsin = target: T4, bovine trypsin (Bos taurus, UniProt P00760); experiment: IC50 against trypsin; format: biochemical; details: read-out: apparent IC50 against trypsin
T4 sequence (P00760 24-246): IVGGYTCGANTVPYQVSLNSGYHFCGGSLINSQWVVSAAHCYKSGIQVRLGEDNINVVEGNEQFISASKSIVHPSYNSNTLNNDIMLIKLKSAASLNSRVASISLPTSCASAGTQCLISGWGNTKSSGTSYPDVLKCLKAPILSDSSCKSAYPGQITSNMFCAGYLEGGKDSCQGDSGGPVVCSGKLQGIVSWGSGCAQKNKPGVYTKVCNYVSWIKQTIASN

GlpG [6] = target: T2, GlpG; format: biochemical, E. coli; details: 36 nM GlpG WT or S201A mutant, 100 µM compound, click reaction with TAMRA-azide
GlpG from E. coli = GlpG from E. coli (Escherichia coli, UniProt P09391); format: biochemical; details: 1 µM probe, 45 nM GlpG WT or inactive S201A mutant, 30 min
bovine chymotrypsin [7] = target: T3, bovine chymotrypsin; set-up: method as in PMID 23359682; details: cited from earlier work

T2 sequence (P09391 whole entry): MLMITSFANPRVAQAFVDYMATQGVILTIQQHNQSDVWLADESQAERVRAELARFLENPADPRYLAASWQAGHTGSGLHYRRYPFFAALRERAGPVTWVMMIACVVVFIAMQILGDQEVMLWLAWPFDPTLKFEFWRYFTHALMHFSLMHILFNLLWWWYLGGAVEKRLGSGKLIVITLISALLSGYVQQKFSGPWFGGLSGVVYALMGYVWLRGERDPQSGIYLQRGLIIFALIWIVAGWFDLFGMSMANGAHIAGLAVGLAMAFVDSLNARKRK
T1 sequence (P09391 whole entry): as above
Sequence of GlpG from E. coli (P09391 whole entry): as above

Row | Compound | IC50 (E. coli rhomboid GlpG [1]) [µM] | blocking of EK2 labeling of GlpG (gel-based competitive ABPP) (GlpG [2]) | inhibition of substrate cleavage (GlpG [3]) | further results
1 | Nc1ccc2c(Cl)c(OCCCCCc3ccccc3)oc(=O)c2c1 [Compound 2] | 0.75 ± 0.21 | able to block | able to block | –
2 | CCCCOc1oc(=O)c2cc(N)ccc2c1Cl [Compound 3] | 0.4 ± 0.1 | able to block | able to block | FluoPol signal, % of wild-type signal (E. coli rhomboid GlpG [4]): slightly negative
3 | O=c1oc(OCCCCCc2ccccc2)c(Cl)c2ccc([N+](=O)[O-])cc12 [Compound 10] | 5.2 ± 0.8 | able to block | able to block | FluoPol signal, % of wild-type signal (E. coli rhomboid GlpG [4]): slightly negative
4 | CCCCOc1oc(=O)c2cc([N+](=O)[O-])ccc2c1Cl [Compound 11] | 5.5 ± 0.55 | able to block | able to block | –
5 | O=c1oc(OCCBr)c(Cl)c2ccc([N+](=O)[O-])cc12 [Compound 12] | 8.4 ± 1.7 | able to block | able to block | FluoPol signal, % of wild-type signal (E. coli rhomboid GlpG [4]): slightly negative
6 | Nc1ccc2c(Cl)c(OCCc3cn(Cc4ccccc4)nn3)oc(=O)c2c1 [Compound 27] | 3.1 ± 0.91 | able to block | able to block | –
7 | C#CCCC[C@@H]1OC(=O)[C@H]1CCCC [Compound 31] | 26 ± 5.8 | able to block | able to block | IC50 (bovine chymotrypsin [5]): > 50 µM; potency against GlpG compared with trypsin and chymotrypsin (bovine chymotrypsin [5]): higher potency against GlpG than against trypsin and chymotrypsin; IC50 (bovine trypsin): > 150 µM; tandem activity-based labeling of GlpG (fluorescent gel band) (GlpG [6]): Wild-type GlpG, but not the inactive S201A mutant was visualized
8 | C#CCCCC(=O)OCC1=CC2(CC=C(C)C)C(=O)OC2C1 (stereo not shown) [Compound 43] | 44 ± 10 | able to block | able to block | IC50 (bovine chymotrypsin [5]): > 50 µM; potency against GlpG compared with trypsin and chymotrypsin (bovine chymotrypsin [5]): higher potency against GlpG than against trypsin and chymotrypsin; IC50 (bovine trypsin): > 150 µM; tandem activity-based labeling of GlpG (fluorescent gel band) (GlpG [6]): Wild-type GlpG, but not the inactive S201A mutant was visualized
9 | CN(C)c1ccc2c(-c3ccc(C(=O)NCCCn4cc(CCOc5oc(=O)c6cc(N)ccc6c5Cl)nn4)cc3C(=O)[O-])c3ccc(=[N+](C)C)cc-3oc2c1 [EK2] | – | – | – | activity-based labeling of GlpG by the probe (GlpG from E. coli): labeled wild-type (WT) GlpG from E. coli, but not the inactive S201A mutant
10 | Nc1ccc2c(Cl)c(OCCc3ccccc3)oc(=O)c2c1 [S016, reference compound] | 1.1 ± 0.56 | – | – | prevention of probe labeling of GlpG WT by pre-inhibition (GlpG [2]; 100 µM inhibitor, 30 min, 1 µM probe EK2 or FP-R): Labeling was also prevented; potency against chymotrypsin compared with GlpG (bovine chymotrypsin [7]): more potent against chymotrypsin than against GlpG
11 | vibralactone [reference compound] | – | – | – | activity against rhomboid (E. coli rhomboid GlpG [4]; FluoPol ABPP screen): inactive
